Test results: US7148218B2 (priority 2001, dated 2006)
Like-named read-outs stand apart in the source and are kept apart here.

Legend:
Assay in all cases: cells
[1] = system: 1A9 ovarian carcinoma; format: cell-based, human; conditions: 3-day exposure, average of two or more separate experiments
Text: (§1) As indicated above, all of the compounds of formula I are anti-tumor agents and are, therefore, useful in inhibiting the growth of various lymphomas, sarcomas, carcinomas, myelomas, and leukemia cell lines. […] This assay was adapted from the 60 cell line assay used by the National Cancer Institute (NCI) with the following modifications: • 1) four cell lines representative for the important tumor types, viz., MIP 101 colon carcinoma, HCT 116 colon carcinoma, 1A9 ovarian carcinoma and 1A9PTX22 ovarian carcinoma, were utilized; and 2) a tetrazolium derivative, viz., MTT, was utilized to determine cell density.
(§2) The ADGMA compares the number of viable cells following a 3-day exposure to a test compound relative to the number of cells present at the time the test compound was added. […] The absorbance at 540 nm (A540) of the formazan derivative is proportional to the number of viable cells. The IC50 for a test compound is the concentration of compound required to reduce the final cell number to 50% of the final control cell number. If cell proliferation is inhibited, the assay further defines compounds as cytostatic (cell number after 3-day compound incubation >cell number at time of compound addition) or cytotoxic (cell number after 3-day compound incubation <cell number at time of compound addition).
(§3) The HCT 116 colon carcinoma cell line was obtained from the American Type Culture Collection (ATCC, Rockville, Md.). The MIP 101 colon carcinoma cell line was obtained from Dr. Robert Kramer (Bristol Meyers Squibb) and was previously described (Niles R M, Wilhelm S A, Steele G D JR, Burke B, Christensen T, Dexter D, O'Brien M J, Thomas P, Zamcheck N. Isolation and characterization of an undifferentiated human colon carcinoma cell line (MIP-101). Cancer Invest. 1987;5(6):545–52.). The 1A9 and the 1A9PTX22 ovarian tumor cell lines were obtained from Dr. Tito Fojo, Medicine Branch, Division of Clinical Sciences, National Cancer Institute, National Institutes of Health, Bethesda, Md. 20892. The 1A9 is a clone of the ovarian carcinoma cell line, A2780 (Giannakakou P, Sackett, D L, Kang Y-K, Zhan Z, Buters J T M, Fojo T, Poruchynsky MS. Paclitaxel-resistant human ovarian cancer cells have mutant δ-tubulins that impaired paclitaxel-driven polymerization. J. Biol. Chem. 1997, 272(4):17118–17125). The 1A9PTX22 subline was isolated as an individual clone from the 1A9 cell line in a single step selection by exposure to 5 ng/mL paclitaxel in the presence of 5 μg/mL of verapamil. All cell lines were used between passages 4–20 following thawing. MIP-101 colon carcinoma, HCT 116 colon carcinoma, 1A9 ovarian carcinoma and 1A9PTX22 ovarian carcinoma cell lines are maintained and plated in RPMI 1640 medium containing 10% fetal bovine serum.
(§4) Cells are trypsinized and counted using a hemacytometer to determine cell concentrations. Cells were then plated in their respective maintenance media (200 μL/well) in 96-well plates at the following concentrations: MIP-101, 2000 cells/well; HCT 116, 2000 cells/well; 1A9, 10000 cells/well; and 1A9PTX22, 10000 cells/well. […] Initial cell densities, assayed one day after plating, are roughly 0.10–0.20 A540 absorbance units greater than the media blank. Ninety-six well plates were seeded on day 0 and the test compounds are added on day 1. A “time 0” plate was created that received media only in row A and one cell line/row in rows B–E. The “time 0” plate was processed 24 hours after plating (at the time when drugs were added to experimental plates), as follows: 5 micoliters of the MTT stock solution (0.5 mg/mL in PBS) was added to each well and then incubated for three hours at 37° C., 5% CO2, in a humidified environment. Media was then carefully and completely removed. Plates were allowed to dry in the dark. DMSO (dimethylsulfoxide) was added to each well (100 μL/well) and plates were placed on an orbital shaker for 2 hours. […]

[2] = system: 1A9PTX22 ovarian carcinoma; format: cell-based, human; conditions: 3-day exposure, paclitaxel-resistant subline, average of two or more separate experiments
Text: as §1, §2, §3, §4

[3] = system: MIP 101 colon carcinoma; format: cell-based, human; conditions: 3-day exposure, average of two or more separate experiments, read-out: IC50 MIP101
Text: as §1, §2, §3, §4

[4] = system: HCT 116 colon carcinoma; format: cell-based; conditions: 3-day exposure, average of two or more separate experiments, read-out: IC50 HCT116
Text: as §1, §2
The HCT 116 colon carcinoma cell line was obtained from the American Type Culture Collection (ATCC, Rockville, Md.). The MIP 101 colon carcinoma cell line was obtained from Dr. Robert Kramer (Bristol Meyers Squibb) and was previously described (Niles R M, Wilhelm S A, Steele G D JR, Burke B, Christensen T, Dexter D, O'Brien M J, Thomas P, Zamcheck N. Isolation and characterization of an undifferentiated human colon carcinoma cell line (MIP-101). Cancer Invest. 1987;5(6):545–52.). […]
Cells are trypsinized and counted using a hemacytometer to determine cell concentrations. […] Initial cell densities, assayed one day after plating, are roughly 0.10–0.20 A540 absorbance units greater than the media blank. […]

| Compound | IC50 ([1]; Homo sapiens, 72 h) | IC50 ([2]; Homo sapiens, 1A9/ptx-22, 72 h) | IC50 ([3]; Homo sapiens, 72 h) | IC50 ([4]; Homo sapiens, HCT-116, 72 h) | IC50 [1] | IC50 [2] | IC50 [3] | IC50 [4] |
| --- | --- | --- | --- | --- | --- | --- | --- | --- |
| C=C/C=C\[C@H](C)C(OC(N)=O)C(C)C(O)C(C)C(=O)N(C)C[C@H](C)[C@@H](O)[C@@H](C)/C=C\C(O)C[C@@H]1OC(=O)[C@H](C)C(O)C1C (stereo partly drawn) [Ex. 2, (2R,3S,4R,5S,7S,8Z)-13-[[(2R,3S,4S,5S,6S,7Z)-5-[(aminocarbonyl)oxy]-3-hydroxy-2,4,6-trimethyl-1-oxo-7,9-decadienyl]methylamino]-3,5,7,11-tetrahydroxy-2,4,10,12-tetramethyl-8-tridecenoic acid δ-lactone] | 4000 nM | 6000 nM | 20000 nM | 13000 nM |  |  |  |  |
| CC(=O)O[C@H]1C(=O)[C@@]2(C)[C@H]([C@H](OC(=O)c3ccccc3)[C@]3(O)C[C@H](OC(=O)[C@H](O)[C@@H](NC(=O)c4ccccc4)c4ccccc4)C(C)=C1C3(C)C)[C@]1(OC(C)=O)CO[C@@H]1C[C@@H]2O [paclitaxel, reference compound] | 47 nM | 1 nM | 200 nM | 0.3 nM |  |  |  |  |
| (2R,3S,4S,5S,7S,8Z,10S,11S,12S,13Z,16S,17R,18S,19S,20S)-19-[(aminocarbonyl)oxy]-3,5,7,11,17-pentahydroxy-2,3,4,10,12,14,16,18,20-nonamethyl-21-(phenylmethoxy)-8,13-heneicosadienoic acid δ-lactone [Ex. 1] |  |  |  |  | 30 nM | 180 nM | 3800 nM | 200 nM |
